Laboratory results taken from patent US10952433B2, “Solutions for enhancing the effectiveness of insecticides and fungicides on living plants and related methods” (priority 2015, dated 2021).
Like-named read-outs stand apart in the source and are kept apart here.

Legend:
[1] = tested on: lepidopteran larvae: cabbage loopers (Trichoplusia ni) and beet armyworms (Spodoptera exigua); assay type: in vivo; details: plants
How it was run: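 Romaine lettuce plants 2-3 inches tall were sprayed with 10 mL of insecticide (ppm) with buffer, amine oxide or buffered amine oxide at 200:1, then infested with 15 T. ni and 15 S. exigua larvae (5th-6th instar) per container. Leaf surface damage scored visually in 5% increments after 24 h.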

[2] = tested on: lepidopteran larvae: cabbage loopers (Trichoplusia ni) and beet armyworms (Spodoptera exigua); assay type: in vivo; details: leaf discs
How it was run: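 Romaine lettuce leaf discs (⅝ inch) dipped about one second in treatment solution and infested with four cabbage loopers and four beet armyworms (3rd-4th instar) per container. Held dark at 15 °C, 80% RH; percent disc-area damage scored visually in 5% increments at 24, 48 and 72 h.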

[3] = insecticide + CO3 buffer 200:1, no amine oxide, PPM: Chlorantranilopril 60, Acephate 70, Methoxyfenozide 100, Spinosad 30, Permethrin 10, Indoxacarb 50
[4] = insecticide + PO4 buffer 200:1, no amine oxide, PPM: Chlorantranilopril 60, Acephate 70, Methoxyfenozide 100, Spinosad 30, Permethrin 10, Indoxacarb 50
[5] = insecticide + amine oxide 12, no buffer, 200:1, PPM: Chlorantranilopril 60, Acephate 70, Methoxyfenozide 100, Spinosad 30, Permethrin 10, Indoxacarb 50
[6] = insecticide + amine oxide 1218, no buffer, 200:1, PPM: Chlorantranilopril 60, Acephate 70, Methoxyfenozide 100, Spinosad 30, Permethrin 10, Indoxacarb 50
[7] = insecticide + buffered amine oxide system CO3, 12, 200:1, PPM: Chlorantranilopril 60, Acephate 70, Methoxyfenozide 100, Spinosad 30, Permethrin 10, Indoxacarb 50
[8] = insecticide + buffered amine oxide system CO3, 1218, 200:1, PPM: Chlorantranilopril 60, Acephate 70, Methoxyfenozide 100, Spinosad 30, Permethrin 10, Indoxacarb 50
[9] = insecticide + buffered amine oxide system PO4, 12, 200:1, PPM: Chlorantranilopril 60, Acephate 70, Methoxyfenozide 100, Spinosad 30, Permethrin 10, Indoxacarb 50
[10] = insecticide + buffered amine oxide system PO4, 1218, 200:1, PPM: Chlorantranilopril 60, Acephate 70, Methoxyfenozide 100, Spinosad 30, Permethrin 10, Indoxacarb 50
[11] = insecticide alone, highest, PPM: Chlorantranilopril 120, Acephate 140, Methoxyfenozide 200, Spinosad 60, Permethrin 20, Indoxacarb 100
[12] = insecticide alone, increased, PPM: Chlorantranilopril 90, Acephate 105, Methoxyfenozide 150, Spinosad 45, Permethrin 15, Indoxacarb 75
[13] = insecticide alone, PPM: Chlorantranilopril 60, Acephate 70, Methoxyfenozide 100, Spinosad 30, Permethrin 10, Indoxacarb 50

Q: For Spinosad, which “Percent Lepidopteran Damage to Romaine Lettuce 24 hr” value [1, 3] is on record?
A: 17.0%

Q: What about the “Percent Lepidopteran Damage to Romaine Lettuce 24 hr” value [1, 4] of the same substance?
A: 20.5%

Q: What about the “Percent Lepidopteran Damage to Romaine Lettuce 24 hr” value [1, 5] of the same substance?
A: 24.5%

Q: And the “Percent Lepidopteran Damage to Romaine Lettuce 24 hr” value [1, 6]?
A: 22.5%

Q: What about the “Percent Lepidopteran Damage to Romaine Lettuce 24 hr” value [1, 7] of the same substance?
A: 12.5%

Q: And the “Percent Lepidopteran Damage to Romaine Lettuce 24 hr” value [1, 8]?
A: 9.5%

Q: What about the “Percent Lepidopteran Damage to Romaine Lettuce 24 hr” value [1, 9] of the same substance?
A: 10.0%

Q: And the “Percent Lepidopteran Damage to Romaine Lettuce 24 hr” value [1, 10]?
A: 6.5%

Q: And the “Percent Lepidopteran Damage to Romaine Lettuce 24 hr” value [1, 11]?
A: 19.0%

Q: What about the “Percent Lepidopteran Damage to Romaine Lettuce 24 hr” value [1, 12] of the same substance?
A: 17.0%

Q: And the “Percent Lepidopteran Damage to Romaine Lettuce 24 hr” value [1, 13]?
A: 28.5%

Q: What about the “Percent Lepidopteran Damage to Romaine Lettuce 24 hr” value [2, 3] of the same substance?
A: 25.5%

Q: And the “Percent Lepidopteran Damage to Romaine Lettuce 24 hr” value [2, 4]?
A: 20.0%

Q: What about the “Percent Lepidopteran Damage to Romaine Lettuce 24 hr” value [2, 5] of the same substance?
A: 30.5%

Q: And the “Percent Lepidopteran Damage to Romaine Lettuce 24 hr” value [2, 6]?
A: 15.0%

Q: And the “Percent Lepidopteran Damage to Romaine Lettuce 24 hr” value [2, 7]?
A: 14.0%

Q: And the “Percent Lepidopteran Damage to Romaine Lettuce 24 hr” value [2, 8]?
A: 10.5%

Q: And the “Percent Lepidopteran Damage to Romaine Lettuce 24 hr” value [2, 9]?
A: 6.5%

Q: And the “Percent Lepidopteran Damage to Romaine Lettuce 24 hr” value [2, 10]?
A: 13.0%

Q: What about the “Percent Lepidopteran Damage to Romaine Lettuce 24 hr” value [2, 11] of the same substance?
A: 24.5%

Q: What about the “Percent Lepidopteran Damage to Romaine Lettuce 24 hr” value [2, 12] of the same substance?
A: 12.0%

Q: And the “Percent Lepidopteran Damage to Romaine Lettuce 24 hr” value [2, 13]?
A: 19.0%

Q: What about the “Percent Lepidopteran Damage to Romaine Lettuce 48 hr” value [2, 3] of the same substance?
A: 28.0%

Q: And the “Percent Lepidopteran Damage to Romaine Lettuce 48 hr” value [2, 4]?
A: 28.5%

Q: And the “Percent Lepidopteran Damage to Romaine Lettuce 48 hr” value [2, 5]?
A: 35.5%

Q: And the “Percent Lepidopteran Damage to Romaine Lettuce 48 hr” value [2, 6]?
A: 21.0%

Q: And the “Percent Lepidopteran Damage to Romaine Lettuce 48 hr” value [2, 7]?
A: 38.0%

Q: And the “Percent Lepidopteran Damage to Romaine Lettuce 48 hr” value [2, 8]?
A: 29.5%

Q: What about the “Percent Lepidopteran Damage to Romaine Lettuce 48 hr” value [2, 9] of the same substance?
A: 18.5%

Q: What about the “Percent Lepidopteran Damage to Romaine Lettuce 48 hr” value [2, 10] of the same substance?
A: 22.0%

Q: What about the “Percent Lepidopteran Damage to Romaine Lettuce 48 hr” value [2, 11] of the same substance?
A: 34.5%

Q: What about the “Percent Lepidopteran Damage to Romaine Lettuce 48 hr” value [2, 12] of the same substance?
A: 23.5%

Q: And the “Percent Lepidopteran Damage to Romaine Lettuce 48 hr” value [2, 13]?
A: 26.5%

Q: What about the “Percent Lepidopteran Damage to Romaine Lettuce 72 hr” value [2, 3] of the same substance?
A: 29.0%

Q: And the “Percent Lepidopteran Damage to Romaine Lettuce 72 hr” value [2, 4]?
A: 33.0%

Q: What about the “Percent Lepidopteran Damage to Romaine Lettuce 72 hr” value [2, 5] of the same substance?
A: 36.0%

Q: What about the “Percent Lepidopteran Damage to Romaine Lettuce 72 hr” value [2, 6] of the same substance?
A: 28.0%

Q: And the “Percent Lepidopteran Damage to Romaine Lettuce 72 hr” value [2, 7]?
A: 49.5%

Q: What about the “Percent Lepidopteran Damage to Romaine Lettuce 72 hr” value [2, 8] of the same substance?
A: 35.5%

Q: What about the “Percent Lepidopteran Damage to Romaine Lettuce 72 hr” value [2, 9] of the same substance?
A: 24.0%

Q: And the “Percent Lepidopteran Damage to Romaine Lettuce 72 hr” value [2, 10]?
A: 29.5%

Q: And the “Percent Lepidopteran Damage to Romaine Lettuce 72 hr” value [2, 11]?
A: 36.5%

Q: And the “Percent Lepidopteran Damage to Romaine Lettuce 72 hr” value [2, 12]?
A: 36.0%

Q: And the “Percent Lepidopteran Damage to Romaine Lettuce 72 hr” value [2, 13]?
A: 59.0%
